Test results reported in patent US5624948A, “1-(2-benzimidazolyl)-1,5-diazacyclooctane compounds” (Kissei Pharmaceutical Co., Ltd., priority 1993, dated 1997).

Tests used:
histamine H1-receptor = biological target: T1, histamine H1-receptor (Cavia porcellus, UniProt P31389); assay: receptor binding assay in blocking 3H-pyrilamine binding to histamine H1-receptor site in guinea pig cerebellum; settings: read-out: 50% inhibitory activity (concentration producing 50% reduction of the binding of the labeled ligand)
T1 construct: histamine H1 -receptor site in guinea pig cerebellum; from tissue; host or cells: guinea pig cerebellum
From the text: The pharmacological activity of the 1-(2-benzimidazolyl)-1,5-diazacyclooctane compounds of the present invention can be confirmed by receptor binding assay in blocking 3H-pyrilamine binding to histamine H1 -receptor site in guinea pig cerebellum. The 1-(2-benzimidazolyl)-1,5-diazacyclooctane compounds of the present invention show a potent histamine H1 -receptor antagonistic activity, and produce a 50% inhibitory activity in a range of about 10^-10 to 10^-8 M (concentration producing 50% reduction of the binding of the labeled ligand).

in vitro = assay type: cell-based; settings: human, nhek keratinocytes
Description: The 1-(2-benzimidazolyl)-1,5-diazacyclooctane compounds of the present invention show a weak cytotoxicity toward normal human epidermal keratinocytes (NHEK) growth. […] In comparison, the NR50 value of Astemizole is about 4.42 μM.

[1] = tested on: DNP-As-induced bronchoconstriction; assay: guinea pig antigen-induced bronchoconstriction model (DNP-As-induced, inhalation of compound); assay type: in vivo; settings: 0.01 mg/ml solution, inhalation for 1 minute with ultrasonic nebulizer, DNP-As 100 μg protein/ml, 1 ml/kg, i.v.
From the text: In the guinea pig antigen-induced bronchoconstriction model, the 1-(2-benzimidazolyl)-1,5-diazacyclooctane compounds of the present invention also show a potent antiallergic activity and a long-lasting efficacy.

bronchial tissues = settings: topical formulation applied to the bronchia; cited from earlier work

T1 sequence (P31389 whole entry): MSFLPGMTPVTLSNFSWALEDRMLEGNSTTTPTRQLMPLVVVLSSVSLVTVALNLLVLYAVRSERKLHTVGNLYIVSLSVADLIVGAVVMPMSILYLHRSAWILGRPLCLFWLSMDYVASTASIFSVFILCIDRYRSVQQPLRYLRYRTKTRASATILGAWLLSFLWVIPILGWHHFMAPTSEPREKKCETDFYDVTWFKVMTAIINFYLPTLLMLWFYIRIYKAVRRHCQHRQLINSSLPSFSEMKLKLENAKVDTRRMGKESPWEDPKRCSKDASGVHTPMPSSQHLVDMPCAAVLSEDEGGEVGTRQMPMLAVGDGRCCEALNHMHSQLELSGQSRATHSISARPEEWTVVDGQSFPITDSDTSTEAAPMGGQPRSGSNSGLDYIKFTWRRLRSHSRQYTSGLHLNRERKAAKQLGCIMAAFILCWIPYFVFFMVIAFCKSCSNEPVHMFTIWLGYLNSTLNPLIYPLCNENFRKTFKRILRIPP

Row | IC50 (histamine H1-receptor) [µM] | Structure (SMILES) | CC50 (in vitro) [µM] | inhibition of DNP-As-induced bronchoconstriction at 4 hours after inhalation [1] | inhibition of DNP-As-induced bronchoconstriction at 8 hours after inhalation [1] | irritation to bronchial tissues (in words) (bronchial tissues)
1 | ~0.000575 | O=C(O)CCc1ccc(CCN2CCCN(c3nc4ccccc4n3Cc3ccc(F)cc3)CCC2)cc1 [Compound 16, 5-[2-[4-(2-Carboxyethyl)phenyl]ethyl]-1-[1-(4-fluorophenylmethyl)-1H-benzimidazol-2-yl]-1,5-diazacyclooctane] | ~789 | about 54.6% | about 44.7% | –
2 | – | COc1ccc(CCN2CCC(Nc3nc4ccccc4n3Cc3ccc(F)cc3)CC2)cc1 [Astemizole] | ~4.42 | about 37.5% | about 29.3% | strong irritation to bronchial tissues
